According to patent US12427157B2, “Methods for treatment of diseases involving acidic or hypoxic diseased tissues” (Cybrexa 1, Inc., priority 2018, dated 2025):
Residues, ends and D or L forms follow the SMILES beside them. *: point of attachment. X16 = C[C@H](COC(=O)N1CCC[C@]1(C)c1nc2c(C(N)=O)cccc2[nH]1)S*

Tests used:
DLD-1 BRCA2−/− cells = assay: Growth delay assay; assay type: cell-based, Human; conditions: pH 7.4, BRCA (−/−) DLD-1, 96 h
Method: Cells were plated in 96 well black walled-clear bottom plates (Griener), DLD-1 WT cells at 2500 cells per well, DLD-1 BRCA2−/− at 5000 cells per well, in growth media containing 10% FBS. Cells were allowed to adhere at room temperature for 60 minutes before returning to a 37 C, 5% CO2 incubator. After 24 hours, media was removed and replaced with fresh growth media containing various drug concentrations. Each drug concentration was added in triplicate. Non-drug treated controls contained growth media only. Cells were returned to the incubator. Ninety-six hours after addition of drug, cells were fixed with 4% paraformaldehyde for 20 minutes and stained with Hoechst at 1 ug/mL. The plates were imaged on a Cytation 5 auto imager (BioTek) and cells were counted using CellProfiler (http://cellprofiler.org). The percent cell growth delay was calculated and data plotted using GraphPad Prism.

PARP = PARP (Homo sapiens, UniProt P09874); assay: Enzymatic Assay 2: HT Universal Chemiluminescent PARP Assay of cleaved compounds; conditions: read-out: IC50 Enzymatic Assay 2; Examples cleaved per Example A (crude cleavage solution); R^8H starting materials as such;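 further: PARP reaction with activated DNA run 1 h at room temperature, product detected via streptavidin-HRP and luminescence endpoint reading on a plate reader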
Chain of PARP (P09874 whole entry): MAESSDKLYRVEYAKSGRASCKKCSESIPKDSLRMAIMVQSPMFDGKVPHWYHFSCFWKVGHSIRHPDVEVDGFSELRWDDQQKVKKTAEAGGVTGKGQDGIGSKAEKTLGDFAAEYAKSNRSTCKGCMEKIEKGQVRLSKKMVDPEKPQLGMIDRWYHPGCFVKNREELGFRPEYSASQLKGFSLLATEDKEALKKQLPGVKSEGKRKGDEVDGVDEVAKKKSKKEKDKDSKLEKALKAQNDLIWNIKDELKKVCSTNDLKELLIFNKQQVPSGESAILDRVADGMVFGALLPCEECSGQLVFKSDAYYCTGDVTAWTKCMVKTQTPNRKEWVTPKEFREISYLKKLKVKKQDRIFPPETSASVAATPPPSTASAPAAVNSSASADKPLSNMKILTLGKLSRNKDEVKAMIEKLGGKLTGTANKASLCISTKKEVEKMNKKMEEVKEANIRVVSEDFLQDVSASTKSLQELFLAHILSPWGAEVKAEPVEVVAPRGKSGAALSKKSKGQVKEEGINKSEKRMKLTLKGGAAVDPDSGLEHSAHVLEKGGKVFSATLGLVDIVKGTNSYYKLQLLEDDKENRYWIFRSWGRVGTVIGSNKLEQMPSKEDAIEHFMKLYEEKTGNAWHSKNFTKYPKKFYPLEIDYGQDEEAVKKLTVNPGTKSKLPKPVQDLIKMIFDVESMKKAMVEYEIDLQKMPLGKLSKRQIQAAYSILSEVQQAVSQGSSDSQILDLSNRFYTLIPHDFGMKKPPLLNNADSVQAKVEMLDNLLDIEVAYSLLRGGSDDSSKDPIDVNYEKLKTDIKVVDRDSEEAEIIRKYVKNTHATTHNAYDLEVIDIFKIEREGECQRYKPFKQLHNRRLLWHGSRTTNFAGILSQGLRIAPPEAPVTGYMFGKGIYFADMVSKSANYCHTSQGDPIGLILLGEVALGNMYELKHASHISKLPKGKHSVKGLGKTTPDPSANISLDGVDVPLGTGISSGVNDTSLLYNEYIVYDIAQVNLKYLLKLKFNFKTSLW

SMILES: CC(C)C[C@H](NC(=O)[C@H](Cc1ccc(O)cc1)NC(=O)[C@H](C)NC(=O)[C@H](CCCNC(=N)N)NC(=O)[C@H](Cc1c[nH]c2ccccc12)NC(=O)[C@@H]1CCCN1C(=O)[C@H](CC(N)=O)NC(=O)[C@H](CCC(N)=O)NC(=O)[C@H](CC(=O)O)NC(=O)[C@H](CC(=O)O)NC(=O)[C@H](C)N)C(=O)N[C@@H](CC(=O)O)C(=O)N[C@@H](CC(C)C)C(=O)N[C@@H](CC(C)C)C(=O)N[C@@H](Cc1ccccc1)C(=O)N1CCC[C@H]1C(=O)N[C@H](C(=O)N[C@@H](CC(=O)O)C(=O)N[C@H](C(=O)N[C@@H](CC(C)C)C(=O)N[C@@H](CC(C)C)C(=O)N[C@@H](CC(C)C)C(=O)N[C@@H](CC(=O)O)C(=O)N[C@@H](CC(C)C)C(=O)N[C@@H](CC(C)C)C(=O)N[C@@H](Cc1c[nH]c2ccccc12)C(=O)N[C@@H](CSS[C@H](C)COC(=O)NCN1c2cc(F)cc3c(=O)[nH]nc(c23)[C@H](c2ncnn2C)[C@H]1c1ccc(F)cc1)C(=O)NCC(=O)O)[C@@H](C)O)[C@@H](C)O [Example 40]
- IC50 (DLD-1 BRCA2−/− cells): 64 nM
- IC50 (PARP): 1.1 nM

SMILES: CC[C@H](C)[C@H](NC(=O)[C@@H]1CCCN1C(=O)[C@H](CC(N)=O)NC(=O)[C@H](CCC(N)=O)NC(=O)[C@H](CCC(=O)O)NC(=O)[C@H](C)N)C(=O)N[C@@H](Cc1ccc(O)cc1)C(=O)N[C@@H](Cc1c[nH]c2ccccc12)C(=O)N[C@@H](C)C(=O)N[C@@H](CCCNC(=N)N)C(=O)N[C@@H](Cc1ccc(O)cc1)C(=O)N[C@@H](C)C(=O)N[C@@H](CC(=O)O)C(=O)N[C@@H](Cc1c[nH]c2ccccc12)C(=O)N[C@@H](CC(C)C)C(=O)N[C@@H](Cc1ccccc1)C(=O)N[C@H](C(=O)N[C@H](C(=O)N1CCC[C@H]1C(=O)N[C@@H](CC(C)C)C(=O)N[C@@H](CC(C)C)C(=O)N[C@@H](CC(C)C)C(=O)N[C@@H](CC(C)C)C(=O)N[C@@H](CC(=O)O)C(=O)N[C@@H](CC(C)C)C(=O)N[C@@H](C)C(=O)N[C@@H](CC(C)C)C(=O)N[C@@H](CC(C)C)C(=O)N[C@H](C(=O)N[C@@H](CC(=O)O)C(=O)N[C@@H](C)C(=O)N[C@@H](CC(=O)O)C(=O)N[C@@H](CCC(=O)O)C(=O)N[C@@H](CSS[C@H](C)COC(=O)N1CCC[C@]1(C)c1nc2c(C(N)=O)cccc2[nH]1)C(=O)NCC(=O)O)C(C)C)[C@@H](C)O)[C@@H](C)O [Example 54] (H-AEQNPIYWARYADWLFTTPLLLLDLALLVDADEC(X16)G-OH; N-terminus and C-terminus assumed)
- IC50 (PARP): 0.6 nM

SMILES: CC(C)C[C@H](NC(=O)[C@H](Cc1ccc(O)cc1)NC(=O)[C@H](C)NC(=O)[C@H](CCCNC(=N)N)NC(=O)[C@H](Cc1c[nH]c2ccccc12)NC(=O)[C@@H]1CCCN1C(=O)[C@H](CC(N)=O)NC(=O)[C@H](CCC(N)=O)NC(=O)[C@H](CC(=O)O)NC(=O)[C@H](CC(=O)O)NC(=O)[C@H](C)N)C(=O)N[C@@H](CC(=O)O)C(=O)N[C@@H](CC(C)C)C(=O)N[C@@H](CC(C)C)C(=O)N[C@@H](Cc1ccccc1)C(=O)N1CCC[C@H]1C(=O)N[C@H](C(=O)N[C@@H](CC(=O)O)C(=O)N[C@H](C(=O)N[C@@H](CC(C)C)C(=O)N[C@@H](CC(C)C)C(=O)N[C@@H](CC(C)C)C(=O)N[C@@H](CC(=O)O)C(=O)N[C@@H](CC(C)C)C(=O)N[C@@H](CC(C)C)C(=O)N[C@@H](Cc1c[nH]c2ccccc12)C(=O)N[C@@H](CSS[C@@H](C)COC(=O)N(C)Cc1ccc(-c2[nH]c3cc(F)cc4c3c2CCNC4=O)cc1)C(=O)NCC(=O)O)[C@@H](C)O)[C@@H](C)O [Example 21]
- IC50 (PARP): 2.2 nM
